Source: patent publication EP4603105A1, “PHARMACEUTICAL COMPOSITION CONTAINING CYCLIC COMPOUND HAVING SELECTIVE KRAS INHIBITORY EFFECT AGAINST HRAS AND NRAS” (CHUGAI SEIYAKU KABUSHIKI KAISHA, priority 2022, dated 2024)
*1 amine or outer side, *2 acyl side, *3 side chain or, on linkers, in order; H or OH if unused. Where a SMILES comes first, the peptide text is derived from it. Bridges are numbered along the chain shown (N, C = ends). [ ]: non-standard residue; d: D form. The star is where a group is joined. hPhe(3-Cl-4-CF3) = N[C@@H](CCc1ccc(C(F)(F)F)c(Cl)c1)C(=O)O; NPrPhe(4-CF3) = CCCN[C@@H](Cc1ccc(C(F)(F)F)cc1)C(=O)O; X15 = CCCN([C@@H](Cc1ccccc1)C(=O)[*:2])[*:1]; NMeGly(cPent) = CN[C@H](C(=O)O)C1CCCC1; Pro(4,4-F2) = O=C(O)[C@@H]1CC(F)(F)CN1; NMeD = CN[C@@H](CC(=O)O)C(=O)O; NMeL = CN[C@@H](CC(C)C)C(=O)O; Morpholide = C1CN(*)CCO1; Ac5c = NC1(C(=O)O)CCCC1; Aze = O=C(O)[C@@H]1CCN1; NcPrGly = O=C(O)CNC1CC1; Sar = CNCC(=O)O

Tests used:
[1] = system: human lung cancer strain NCI-H441; assay type: cell-based
How it was run: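 Signal came from […] measured per well once the reagent was added. Beforehand, cells were cultured at 37°C and 5% carbon dioxide on a compound series serially diluted in dimethyl sulfoxide.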

[2] = molecular target: GDP-bound NRAS wild-type protein (Homo sapiens, UniProt P01111); test: Binding to NRAS by surface plasmon resonance (SPR), KD and KD ratio to KRAS
Sequence of GDP-bound NRAS wild-type protein (P01111 whole entry): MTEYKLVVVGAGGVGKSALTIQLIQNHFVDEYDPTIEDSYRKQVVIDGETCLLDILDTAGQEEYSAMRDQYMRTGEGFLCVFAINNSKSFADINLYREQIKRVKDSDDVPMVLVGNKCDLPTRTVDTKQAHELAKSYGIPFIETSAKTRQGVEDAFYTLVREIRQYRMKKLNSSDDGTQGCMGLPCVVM
How it was run: (§1)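 Recombinant RAS proteins bearing a biotinylated Avi tag and loaded with GDP served as the captured ligand, recaptured fresh every cycle. Binding responses were referenced to an uncoated surface and a buffer-only blank cycle. Dissociation constants were obtained by 1:1 model fitting at 30°C.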

HRAS wild-type protein = HRAS wild-type protein (Homo sapiens, UniProt P01112); test: Binding to HRAS by surface plasmon resonance (SPR), KD and KD ratio to KRAS
Sequence of HRAS wild-type protein (P01112 whole entry): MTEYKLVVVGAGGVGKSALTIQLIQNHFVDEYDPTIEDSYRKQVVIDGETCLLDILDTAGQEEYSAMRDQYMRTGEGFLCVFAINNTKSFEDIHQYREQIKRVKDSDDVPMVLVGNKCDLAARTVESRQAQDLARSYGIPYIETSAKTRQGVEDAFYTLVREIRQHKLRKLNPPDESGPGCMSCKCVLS
How it was run: as §1

[3] = ratio of KD for GDP-bound NRAS wild-type protein to KD for KRAS
[4] = ratio of KD for HRAS wild-type protein to KD for KRAS
[5] = ratio of the KD value with respect to GDP-bound NRAS wild-type protein to the KD value with respect to KRAS
[6] = ratio of the KD value with respect to HRAS wild-type protein to the KD value with respect to KRAS

Row | Structure (SMILES) | IC50 [1] [nM] | NRAS /KRAS [2, 3] | HRAS /KRAS (HRAS wild-type protein; [4]) | NRAS /KRAS [2, 5] | HRAS /KRAS (HRAS wild-type protein; [6]) | NRAS /KRAS ([2]; ratio of KD with respect to GDP-bound NRAS wild-type protein to KD with respect to KRAS) | HRAS /KRAS (HRAS wild-type protein; ratio of KD with respect to HRAS wild-type protein to KD with respect to KRAS)
1 | CCCN1C(=O)CN(C)C(=O)CN(C)C(=O)[C@H]([C@@H](C)CC)NC(=O)[C@H](CC(C)C)N(C)C(=O)C[C@@H](C(=O)N2CCOCC2)N(C)C(=O)[C@H](C2CCCC2)N(C)C(=O)C2(CCCC2)NC(=O)[C@@H]2CCCN2C(=O)[C@H](CCc2ccc(C(F)(F)F)c(Cl)c2)NC(=O)CN(C)C(=O)[C@@H]1Cc1ccccc1 [PP0211] ([NMeL]I[Sar][Sar][X15][Sar][hPhe(3-Cl-4-CF3)]P[Ac5c][NMeGly(cPent)][NMeD]-Morpholide; lactam N-11) | 10.8 | B (a compound having 3 or more and less than 10 is denoted as B) | C (A compound having a KD ratio of 0.1 or more and less than 3 is denoted as C) | – | – | – | –
2 | CCC[C@H]1C(=O)N[C@@H]([C@@H](C)CC)C(=O)N2CCC[C@H]2C(=O)N(C)[C@H]2C/C=C\CCN(C2=O)[C@@H](CC2CCCCC2)C(=O)N(C)CC(=O)N[C@@H](CCc2ccc(C(F)(F)F)c(OC)c2)C(=O)N2C[C@H](OCC)C[C@H]2C(=O)N(C)C2(CCC2)C(=O)N(C)[C@@H](C2CCCC2)C(=O)N(C)[C@H](C(=O)N(C)C)CC(=O)N1C [PP2344] | 44.9 | – | – | A (a compound having 10 or more and less than 20 is denoted as A) | A (a compound having 10 or more and less than 20 is denoted as A) | – | –
3 | CCCN1C(=O)[C@@H]2CCN2C(=O)CN(C2CC2)C(=O)[C@H]([C@@H](C)CC)NC(=O)[C@H](CC(C)C)N(C)C(=O)C[C@@H](C(=O)N2CCOCC2)N(C)C(=O)[C@H](C2CCCC2)N(C)C(=O)C2(CCCC2)NC(=O)[C@@H]2CCCN2C(=O)[C@H](CCc2ccc(C(F)(F)F)c(Cl)c2)NC(=O)CN(C)C(=O)[C@@H]1Cc1ccc(C(F)(F)F)cc1 [PP0273] ([NMeL]I[NcPrGly][Aze][NPrPhe(4-CF3)][Sar][hPhe(3-Cl-4-CF3)]P[Ac5c][NMeGly(cPent)][NMeD]-Morpholide; lactam N-11) | 12.2 | C (A compound having a KD ratio of 0.1 or more and less than 3 is denoted as C) | B (a compound having 3 or more and less than 10 is denoted as B) | – | – | – | –
4 | CC[C@H](C)[C@@H]1NC(=O)[C@H](CCOC)N(C)C(=O)C[C@@H](C(=O)N(C)CC)N(C)C(=O)[C@H](C2CCCC2)N(C)C(=O)C2(CC(C)(C)C2)NC(=O)[C@@H]2C[C@H](C)CN2C(=O)[C@H](CCc2cc(F)c(C(F)(F)F)c(F)c2)NC(=O)CN(C)C(=O)[C@H](Cc2ccc(C(F)(F)F)cc2)N2CC/C=C\C[C@@H](C2=O)N(C)C(=O)CN(C)C1=O [PP1972] | 13.2 | – | – | A (a compound having 10 or more and less than 20 is denoted as A) | A (a compound having 10 or more and less than 20 is denoted as A) | – | –
5 | CCO[C@@H]1C[C@H]2C(=O)NC3(CCC3)C(=O)N(C)[C@@H](C3CCCC3)C(=O)N[C@H](C(=O)N(C)C)CC(=O)N(C)[C@@H](CC)C(=O)N[C@@H]([C@@H](C)CC)C(=O)N(C)CC(=O)N(C)[C@H]3C/C=C\CCN(C3=O)[C@@H](Cc3ccc(C(F)(F)F)cc3)C(=O)N(C)CC(=O)N[C@@H](CCc3cc(F)c(C(F)(F)F)c(F)c3)C(=O)N2C1 [PP1094] | 778 | A (a compound having 10 or more and less than 20 is denoted as A) | B (a compound having 3 or more and less than 10 is denoted as B) | – | – | – | –
6 | CCCN1C(=O)[C@@H]2CCN2C(=O)CN(C)C(=O)[C@H]([C@@H](C)CC)NC(=O)[C@H](CC(C)C)N(C)C(=O)C[C@@H](C(=O)N2CCOCC2)NC(=O)[C@H](C2CCCC2)N(C)C(=O)C2(CCCC2)NC(=O)[C@@H]2CC(F)(F)CN2C(=O)[C@H](CCc2ccc(C(F)(F)F)c(Cl)c2)NC(=O)CN(C)C(=O)[C@@H]1Cc1ccc(C(F)(F)F)cc1 [PP0351] ([NMeL]I[Sar][Aze][NPrPhe(4-CF3)][Sar][hPhe(3-Cl-4-CF3)][Pro(4,4-F2)][Ac5c][NMeGly(cPent)]D-Morpholide; lactam N-11) | 39 | C (A compound having a KD ratio of 0.1 or more and less than 3 is denoted as C) | B (a compound having 3 or more and less than 10 is denoted as B) | – | – | – | –
7 | CCC[C@H]1C(=O)N[C@@H]([C@@H](C)CC)C(=O)N(C2CC2)CC(=O)N(C)[C@H]2C/C=C\CCN(C2=O)[C@@H](Cc2ccc(C)cc2)C(=O)N(C)CC(=O)N[C@@H](CCc2cc(F)c(C(F)(F)F)c(F)c2)C(=O)N2C[C@H](OCC)C[C@H]2C(=O)NC2(CC(C)(C)C2)C(=O)N(C)[C@@H](C2CCCC2)C(=O)N(C)[C@H](C(=O)N(C)C)CC(=O)N1C [PP2093] | 7.4 | – | – | A (a compound having 10 or more and less than 20 is denoted as A) | A (a compound having 10 or more and less than 20 is denoted as A) | – | –
8 | C#CC[C@H]1C(=O)N[C@@H]([C@@H](C)CC)C(=O)N(C)CC(=O)N(C)[C@H]2C/C=C\CCN(C2=O)[C@@H](Cc2ccc(C(F)(F)F)cc2)C(=O)N(C)CC(=O)N[C@@H](CCc2cc(F)c(C(F)(F)F)c(F)c2)C(=O)N2C[C@H](OCC)C[C@H]2C(=O)NC2(CC(C)(C)C2)C(=O)N(C)[C@@H](C2CCCC2)C(=O)N(C)[C@H](C(=O)N(C)CC)CC(=O)N1C [PP2073] | 3.5 | – | – | A (a compound having 10 or more and less than 20 is denoted as A) | A (a compound having 10 or more and less than 20 is denoted as A) | – | –
9 | CC[C@H](C)[C@@H]1NC(=O)[C@H](CC(C)C)N(C)C(=O)C[C@@H](C(=O)N2CCOCC2)N(C)C(=O)[C@H](C2CCCC2)N(C)C(=O)C2(CCCC2)NC(=O)[C@@H]2CCCN2C(=O)[C@H](CCc2ccc(C(F)(F)F)c(Cl)c2)NC(=O)CN(C)C(=O)[C@H](Cc2ccc(C(F)(F)F)cc2)N2CC=CC[C@@H](C2=O)N(C)C(=O)CN(C)C1=O [PP0462] | 15.1 | – | – | C (A compound having a KD ratio of 0.1 or more and less than 3 is denoted as C) | C (A compound having a KD ratio of 0.1 or more and less than 3 is denoted as C) | – | –
10 | CCCCO[C@@H]1C[C@H]2C(=O)NC3(CCC3)C(=O)N(C)[C@@H](C3CCCC3)C(=O)N(C)[C@H](C(=O)N3CCOCC3)CC(=O)N(C)[C@@H](CC(C)C)C(=O)N[C@@H]([C@@H](C)CC)C(=O)N(C)CC(=O)N(C)[C@H]3CCCCCN(C3=O)[C@@H](Cc3ccc(C(F)(F)F)cc3)C(=O)N(C)CC(=O)N[C@@H](CCc3cc(F)c(C(F)(F)F)c(F)c3)C(=O)N2C1 [PP1004] | 255 | B (a compound having 3 or more and less than 10 is denoted as B) | B (a compound having 3 or more and less than 10 is denoted as B) | – | – | – | –
11 | CCO[C@@H]1C[C@H]2C(=O)NC3(CCC3)C(=O)N(C)[C@@H](C3CCCC3)C(=O)N(C)[C@H](C(=O)N3CCOCC3)CC(=O)N(C)[C@@H](CC)C(=O)N[C@@H]([C@@H](C)CC)C(=O)N(C)CC(=O)N(C)[C@H]3CC/C=C(/C)CN(C3=O)[C@@H](Cc3ccc(C(F)(F)F)cc3)C(=O)N(C)CC(=O)N[C@@H](CCc3cc(F)c(C(F)(F)F)c(F)c3)C(=O)N2C1 [PP1335] | 736 | – | – | – | – | B (a compound having 3 or more and less than 10 is denoted as B) | B (a compound having 3 or more and less than 10 is denoted as B)
12 | CC[C@H](C)[C@@H]1NC(=O)[C@H](CC(C)C)N(C)C(=O)C[C@@H](C(=O)N2CCOCC2)N(C)C(=O)[C@H](C2CCCC2)N(C)C(=O)C2(CCCC2)NC(=O)[C@@H]2CCCN2C(=O)[C@H](CCc2ccc(C(F)(F)F)c(Cl)c2)NC(=O)CN(C)C(=O)[C@H](Cc2ccc(C)cc2)N2CCCC[C@@H](C2=O)N(C)C(=O)CN(C)C1=O [PP0316] | 2.8 | C (A compound having a KD ratio of 0.1 or more and less than 3 is denoted as C) | B (a compound having 3 or more and less than 10 is denoted as B) | – | – | – | –
